These results are taken from US10017535B2, “Amphiphilic compounds with neuroprotective properties” (USTAV ORGANICKE CHEMIE A BIOCHEMIE AV CR, v.v.i., priority 2014, dated 2018).

What is called IC50 is the concentration at which inhibition is half-maximal.

Data set [1] concerns laboratory mice, strain CD-1. Briefly: Forced swimming test (antidepressant effect). On Forced Swimming Test Reduced Floating: key: −: the desired effect was not observed; −/+: the desired effect was insufficient; +: the desired effect was observed. The data set is classed as in vivo. As for the experimental part: (§1) In the Experimental Part 1 were used adults (30-35 g) male laboratory mice, strain CD-1 from Velaz facility, Czech Republic. Mice were housed in plastic boxes with a 12-hour light cycle (lights on at 7:00 pm). Mice had free access to food and water.
This assay was used to monitor the antidepressant effect. Animals float 6 minutes in acrylic cylinder in water at 24° C. A period of immobility is evaluated. The reduction is a manifestation of anti-depressant properties of drugs.

Data set [2] has as its target T1, NR1-1a/NR2B NMDA receptor (Rattus norvegicus, UniProt P35439+Q00960).
T1 construct: expressed in transfected cells; host or cells: HEK293 cells (ATCC CRL1573)
Briefly: Patch-clamp inhibition of glutamate-evoked currents at recombinant NMDA receptors in transfected HEK293 cells. The data set is classed as cell-based. The settings on record: for IC50: calculated from relative steroid-induced inhibition, Hill's coefficient 1.2, read-out: IC50. Summed up:
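HEK293 cells co-transfected with rat NR1-1a/NR2B plus GFP were whole-cell patch-clamped 16-40 h post-transfection at −60 mV. Currents were evoked by 1 mmol·l^−1 glutamate with 10 μmol·l^−1 glycine in ECS pH 7.3, and steroid was co-applied in DMSO via fast perfusion. IC50 came from relative inhibition.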

Data set [3] deals with laboratory mice, strain CD-1. Briefly: Passive avoidance test (aversive motivated memory). Further: key: −: the desired effect was not observed; −/+: the desired effect was insufficient; +: the desired effect was observed. Type of data set: in vivo. As for the experimental part:
as §1
Aversive motivated memory test was evaluated on the basis of latency input into the preferred, but unpleasant sensation associated with delivery device.

The test system of data set [4] is laboratory mice, strain CD-1. The data set is classed as in vivo. The settings on record: intraperitoneally, 1 mg/kg. How it is done:
as §1
Thus there were prepared solutions of the four steroids for application rates of 0.1, 1, 10 and 100 mg/kg.
Laboratory mouse was chosen as a model organism for this experiment. The following experiments were performed as described in Front Behay. Neurosci.
The purpose of the primary behavioral testing was quickly determined the effect of compounds on CNS dependent functions and any signs of toxicity. A simplified modification Irwin test was selected with respect to the behavioral profile of NMDA receptor antagonists. Mice were tested individually. The study drug was administered intraperitoneally (Table 3) at a dose of 1 mg/kg. The control group consisted of individuals that received the CDX solution or saline.

The subject of data set [5] is NMDA lesion of the dorsal hippocampus in rats. Briefly: Active allothetic place avoidance (AAPA) after bilateral excitotoxic NMDA lesion of dorsal hippocampus. On NMDA lession Improvement in Cognition in AAPA after NMDA Lession: key: −: the desired effect was not observed; −/+: the desired effect was insufficient; +: the desired effect was observed. The data set is classed as in vivo, rat Long-Evans strain. Conditions: for NMDA lession Improvement in Cognition in AAPA after NMDA Lession: 1 mg/kg after NMDA lesion. As for the experimental part: In the Experimental Part 2 were used adult (3 months old, 300-400 g) male rat Long-Evans strain. The animals come from herds Institute of Physiology ASCR. The rats were housed in clear plastic boxes with the same light cycle as in mice. Animals had free access to food and water. All experiments were carried out in the light of clay. All experiments were carried out in accordance with the Law on protection of animals against cruelty.
The anesthetized rats were used in operations isoflurane (3.5%, Baxter). To recall excitotoxic lesion of the dorsal hippocampus was applied 0.05 mol·l^−1 solution of NMDA (Sigma-Aldrich) in 0.4 mol·l^−1 phosphate buffer solution prepared by mixing 356 g Na2HPO4.12H2O (Mw358.14) in 4.2 l of distilled water and a solution of 62.4 g NaHPO4. 2H2O (Mw156.01) in 0.8 l of distilled water. The pH of the resulting solution of NMDA was adjusted to 7.4 with NaOH.
In this experiment, the neuroprotective effects were evaluated for amphiphilic steroid compounds. The procedure was performed according to Neuropharmacology 61, 61-68 (2011)
The rats were randomly divided into eleven groups. The control group included operated animals, which were injected by phosphate buffer […] into the hippocampus. In the second group, the animals had NMDA lesions of the hippocampus. The animals of the third group were applied clinically used NMDA antagonist memantine at a dose of 5 mg/kg after NMDA lesion. The other groups were administered the compounds at a dose of 1 mg/kg.
The test was performed in rotating arena with prohibited sector in the form of a circular sector (60°). If the rat entered the sector, its limbs received weak electrical impulse.
Test memory and spatial cognition in rats using AAPA was evaluated over four sessions, which are in healthy rats sufficient to achieve asymptotic level (Behay. Brain. Res. 189, 139-144 (2008)). To evaluate memory and spatial cognition was used data from the fourth session, and the number of entries into the forbidden sector and the maximum avoidance sector. […] After the experiment, the localization of the lesion was histologically verified.
Data were analyzed using the non parametric test of Maim Whitney criteria using the GraphPad. The difference was considered significant for p<0.05, for a non-significant tendency then for 0.05<p<0.075.

Where [6] appears, read: 1 mg/kg after surgery, vs NMDA group.
Wherever Behavioural Test No Evidence of Toxicity is given: key: −: the desired effect was not observed; −/+: the desired effect was insufficient; +: the desired effect was observed.

T1 sequence (Q00960 27-1482, other chains not shown): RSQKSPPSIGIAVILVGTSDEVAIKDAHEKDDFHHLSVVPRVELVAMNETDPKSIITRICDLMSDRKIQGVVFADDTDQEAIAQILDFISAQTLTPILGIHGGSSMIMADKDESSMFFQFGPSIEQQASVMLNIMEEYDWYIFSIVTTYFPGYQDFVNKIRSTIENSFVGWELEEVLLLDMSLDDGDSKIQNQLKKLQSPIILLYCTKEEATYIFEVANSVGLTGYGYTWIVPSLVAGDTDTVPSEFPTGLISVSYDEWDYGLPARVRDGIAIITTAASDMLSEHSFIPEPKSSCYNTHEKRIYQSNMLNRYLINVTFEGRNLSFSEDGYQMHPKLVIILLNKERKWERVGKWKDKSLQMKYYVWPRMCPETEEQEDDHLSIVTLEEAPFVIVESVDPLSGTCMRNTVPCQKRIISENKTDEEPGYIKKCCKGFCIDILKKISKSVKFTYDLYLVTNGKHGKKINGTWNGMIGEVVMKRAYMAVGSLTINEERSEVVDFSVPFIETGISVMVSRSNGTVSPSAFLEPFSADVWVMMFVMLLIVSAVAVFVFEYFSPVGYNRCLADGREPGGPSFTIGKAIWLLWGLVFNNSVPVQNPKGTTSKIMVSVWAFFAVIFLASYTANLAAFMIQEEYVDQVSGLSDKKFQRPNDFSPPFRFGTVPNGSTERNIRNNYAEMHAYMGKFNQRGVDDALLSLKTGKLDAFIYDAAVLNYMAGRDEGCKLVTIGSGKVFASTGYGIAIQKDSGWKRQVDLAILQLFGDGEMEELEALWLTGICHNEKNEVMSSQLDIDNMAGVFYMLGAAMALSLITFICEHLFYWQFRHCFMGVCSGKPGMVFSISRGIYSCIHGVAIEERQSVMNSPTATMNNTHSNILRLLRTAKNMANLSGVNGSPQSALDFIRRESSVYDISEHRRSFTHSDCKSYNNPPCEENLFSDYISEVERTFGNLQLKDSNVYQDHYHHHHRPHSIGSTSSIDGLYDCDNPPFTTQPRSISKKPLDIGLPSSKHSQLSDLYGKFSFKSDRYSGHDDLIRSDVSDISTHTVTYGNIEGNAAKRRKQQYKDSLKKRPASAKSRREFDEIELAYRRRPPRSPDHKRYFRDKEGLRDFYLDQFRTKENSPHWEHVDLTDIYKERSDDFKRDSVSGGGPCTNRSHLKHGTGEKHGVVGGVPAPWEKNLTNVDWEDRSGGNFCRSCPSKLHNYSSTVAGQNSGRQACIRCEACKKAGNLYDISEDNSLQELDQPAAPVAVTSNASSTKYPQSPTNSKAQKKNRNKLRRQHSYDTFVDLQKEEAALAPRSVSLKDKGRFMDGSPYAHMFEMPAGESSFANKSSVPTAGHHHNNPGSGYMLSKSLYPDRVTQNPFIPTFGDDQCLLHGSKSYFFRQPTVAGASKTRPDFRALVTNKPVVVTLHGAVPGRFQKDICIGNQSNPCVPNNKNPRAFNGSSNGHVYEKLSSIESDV

As for “Pyridinium (3S,3aS,5bR,7aR,9R,11aS,11bS,13aR)-3,11a-dimethylhexadecahydro-1H,3H-naphtho[2′,1′:4,5]indeno[1,7a-c]furan-9-yl 9-sulfate [Compound 124]”, in data set [1], the “Forced Swimming Test Reduced Floating” value is listed as “−”. The IC50 in data set [2] was 51 µM. Also, the “Mean % change ± SD” value in data set [2] (steroid concentration 100 μmol·l^−1, 1 mmol·l^−1 glutamate, −60 mV) came out at 69.1 ± 4.0%. Further, the “Passive Avoidance Test No Memory Violation” value in data set [3] was “−/+”. Further, the “Behavioural Test No Evidence of Toxicity” value in data set [4] is listed as “+”. Also, in data set [5], the “NMDA lession Improvement in Cognition in AAPA after NMDA Lession” value is given as “−”.
As to `C[C@@]12CCC[C@H]1[C@@H]1CC[C@@H]3C[C@H](OC(=O)[C@@H](N)CCC(=O)O)CC[C@]3(C)[C@H]1CC2` [Compound 130, (4S)-4-Amino-5-(((3R,5R,8S,9S,10S,13S,14S)-10,13-dimethylhexadecahydro-1H-cyclopenta[a]phenanthren-3-yl)oxy)-5-oxopentanoic acid], in data set [1], the “Forced Swimming Test Reduced Floating” value was “+”. Moreover, in data set [1] (1 mg/kg), the “flotation (immobility)” value is given as “significant decrease” and the “latency to the first flotation” value is on record as “longer latency”. Moreover, the inhibition at 1 µM in data set [2] (HEK293, read-out: Mean % change ± SD) came to 36.7 ± 7%. The IC50 in data set [2] was 1.6 µM. The “Passive Avoidance Test No Memory Violation” value in data set [3] is listed as “+”. Moreover, in data set [4], the “Behavioural Test No Evidence of Toxicity” value is “+”. For the same compound, in data set [5] (setting [6]), the “maximum time avoiding the sector, fourth session of AAPA” value is “significantly increased” and the “number of entries into the forbidden sector, fourth session of AAPA” value is “significant reduction”.
Regarding `C[C@@]12CCCCC1[C@@H]1CC[C@@H]3C[C@H](OC(=O)[C@@H](N)CCC(=O)O)CC[C@]3(C)[C@H]1CC2` (stereo partly drawn) [Compound 106, (4S)-4-Amino-5-(((2R,4aS,4bS,6aS,10bS,12aR)-4a,6a-dimethyloctadekahydrochrysen-2-yl)oxy)-5-oxopentanoic acid], the “Forced Swimming Test Reduced Floating” value in data set [1] is on record as “−”. Besides, the inhibition at 10 µM in data set [2] (HEK293, steroid concentration 10 μmol·l^−1, 1 mmol·l^−1 glutamate, −60 mV, read-out: Mean % change ± SD) worked out at 48.7 ± 6.3%. Also, the IC50 in data set [2] is 10.6 µM. The “Passive Avoidance Test No Memory Violation” value in data set [3] was “+”. Besides, the “Behavioural Test No Evidence of Toxicity” value in data set [4] is recorded as “+”. The “NMDA lession Improvement in Cognition in AAPA after NMDA Lession” value in data set [5] was “−”.
